This is an account of results in US4661505A, “Leukotriene antagonists” (Eli Lilly and Company, priority 1982, dated 1987).

By inhibition is commonly meant the drop in the measured response relative to a control, in per cent.

Where a name gives a salt, the structure may show the parent alone.

In the test the target is T1, LTD4 evoked ileal contractions (Cavia porcellus, UniProt Q2NNR5).
T1 construct: A section of terminal ileum was removed, the lumen cleaned, and the tissue divided into 2.5 cm. segments; from tissue; host or cells: terminal ileum of male Hartley guinea pigs
T1 sequence (Q2NNR5 1-340): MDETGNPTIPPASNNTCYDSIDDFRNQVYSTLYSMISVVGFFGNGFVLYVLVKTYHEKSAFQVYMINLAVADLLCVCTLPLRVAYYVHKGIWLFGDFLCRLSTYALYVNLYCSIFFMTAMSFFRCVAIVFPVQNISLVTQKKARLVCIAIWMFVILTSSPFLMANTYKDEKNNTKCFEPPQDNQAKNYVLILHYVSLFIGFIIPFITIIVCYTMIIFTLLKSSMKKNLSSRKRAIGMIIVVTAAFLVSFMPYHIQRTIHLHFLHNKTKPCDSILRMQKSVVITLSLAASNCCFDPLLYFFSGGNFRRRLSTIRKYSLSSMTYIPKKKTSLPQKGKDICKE
The experiment in a line: Antagonism of LTD4-evoked contraction of isolated guinea pig ileum (single concentration). As to conditions: pure LTD4, 5 minute exposure, read-out: Percent Inhibition of LTD4 evoked ileal contractions; for inhibition at 1 µM: 1 × 10^-6 M; for inhibition at 3 µM: 3 × 10^-6 M; for inhibition at 10 µM: 1 × 10^-5 M. Type of test: cell-based. On the procedure:
Male, Hartley guinea pigs weighing 200-450 grams were killed by decapitation. A section of terminal ileum was removed, the lumen cleaned, and the tissue divided into 2.5 cm. segments. The ilea were mounted in 10 ml. tissue baths containing Krebs-bicarbonate solution of the following composition in mmoles/liter: KCl, 4.6; CaCl2.2H2 O, 1.2; KH2 PO4, 1.2; MgSO4.7H2 O, 1.2; NaCl, 118.2; NaHCO3, 24.8 and dextrose, 10.0. The bath fluid was maintained at 37° C. and aerated with 95 percent oxygen and 5 percent CO2. In addition, the buffer contained 1×10^-6 M atropine to reduce ileal spontaneous activity. In studies with crude SRS-A, 1×10^-6M pyrilamine was used to mitigate the actions of histamine present along with the biologically active leukotrienes. Isometric measurements were made with a Grass FTO3C force-displacement transducer and recorded on a Grass polygraph as change in grams of force. A passive force of 0.5 g. was applied to the tissues. After an appropriate equilibration period, single submaximal control responses to either SRS-A or pure LTD4 were obtained. Following a 5 minute exposure of the ileum to an experimental drug, the control concentration of SRS-A or LTD4 was added to the tissue bath. The response of the ileum to SRS-A or LTD4 in the presence of the drug was compared to the response in the absence of the drug.
*Compounds marked with an asterisk were tested using crude SRSA as the
ileumcontracting agent; all other compounds were tested using pure

Consider `CCCc1c(OCCCCc2nnn[nH]2)ccc(C(C)=O)c1O` [Example 8, 5-[4-(4-Acetyl-3-hydroxy-2-propylphenoxy)butyl]-tetrazole], for which the inhibition at 1 µM stood at 89% and the inhibition at 3 µM is 100%.

`CCCc1c(OCCCCCCCCCCCCc2nnn[nH]2)ccc(C(C)=O)c1O` [Example 14, 5-[12-(4-Acetyl-3-hydroxy-2-propylphenoxy)dodecyl]-tetrazole]: the inhibition at 1 µM is 22% and the inhibition at 3 µM was found to be 47%.

In the case of `CCCc1c(OC(CCCCC(=O)O)c2ccc(Cc3ccccc3)cc2)ccc(C(C)=O)c1O` (centres unmarked) [Example 15, 6-(4-Acetyl-3-hydroxy-2-propylphenoxy)-6-(4-benzylphenyl)hexanoic acid], the inhibition at 10 µM was determined as 37%.

`CC(=O)c1ccc(OC(CCCCC(=O)O)c2ccc(Cc3ccccc3)cc2)cc1O` (centres unmarked) [Example 16, 6-(4-Acetyl-3-hydroxyphenoxy)-6-(4-benzylphenyl)hexanoic acid]: the inhibition at 10 µM stood at 86% and the inhibition at 3 µM worked out at 70%.

With `CC(=O)c1ccc(OC(CCCCC(=O)O)c2ccc(-c3ccccc3)cc2)cc1O` (centres unmarked) [Example 18, 6-(4-Acetyl-3-hydroxyphenoxy)-6-(4-biphenyl)hexanoic acid], the inhibition at 3 µM is 34%.

Consider `CCCc1c(OC(CCCCC(=O)O)c2ccccc2)ccc(C(C)=O)c1O` (centres unmarked) [Example 19, 6-(4-Acetyl-3-hydroxy-2-propylphenoxy)-6-phenylhexanoic acid], for which the inhibition at 10 µM was 64% and the inhibition at 3 µM came to 35%.

On to `CCCc1c(OCCCc2nnn[nH]2)ccc(C(C)=O)c1O` [Example 23, 5-[3-(4-Acetyl-3-hydroxy-2-propylphenoxy)propyl]-tetrazole], for which the inhibition at 1 µM is 15%.

Regarding `C=CCc1c(OCCCCCC(=O)O)ccc(C(C)=O)c1O` [Example 26, 6-(4-Acetyl-3-hydroxy-2-allylphenoxy)-hexanoic acid], the inhibition at 3 µM came to 29%.

Take `CCCc1c(OCCCCCCC(=O)O)ccc(C(C)=O)c1O` [Example 29, 7-(4-Acetyl-3-hydroxy-2-propylphenoxy)heptanoic acid]: the inhibition at 10 µM amounted to 84% and the inhibition at 1 µM is 43%.

Consider `CCCc1c(OCCCCCCCC(=O)O)ccc(C(C)=O)c1O` [Example 30, 8-(4-Acetyl-3-hydroxy-2-propylphenoxy)octanoic acid], for which the inhibition at 10 µM worked out at 94% and the inhibition at 1 µM was found to be 62%.

On to `CCCc1c(OCCCCCCCCCC(=O)O)ccc(C(C)=O)c1O` [Example 32, 10-(4-Acetyl-3-hydroxy-2-propylphenoxy)decanoic acid], for which the inhibition at 10 µM is 92%, the inhibition at 1 µM came out at 46% and the inhibition at 3 µM was determined as 85%.

In the case of `CCCc1c(OCCCCCCCCCCC(=O)O)ccc(C(C)=O)c1O` [Example 33, 11-(4-Acetyl-3-hydroxy-2-propylphenoxy)undecanoic acid], the inhibition at 10 µM stood at 92% and the inhibition at 3 µM amounted to 79%.

Turning to `CCCc1c(OCCCCCCN2CCOCC2)ccc(C(C)=O)c1O` [Example 35, N-[6-(4-Acetyl-3-hydroxy-2-propylphenoxy)hexyl]morpholine hydrochloride], the inhibition at 10 µM was found to be 80% and the inhibition at 3 µM was determined as 47%.

On to `CCCc1c(OCCCCCCN)ccc(C(C)=O)c1O` [Example 36, 6-(4-Acetyl-3-hydroxy-2-propylphenoxy)hexylamine hydrochloride], for which the inhibition at 1 µM came to 26% and the inhibition at 3 µM was determined as 42%.

For the compound `CCCc1c(OCCCCCCN2CCN(C)CC2)ccc(C(C)=O)c1O` [Example 37, N-Methyl-N'-[6-(4-acetyl-3-hydroxy-2-propylphenoxy)hexyl]piperazine dihydrochloride], the inhibition at 10 µM amounted to 78% and the inhibition at 3 µM was 32%.

On to `CCCc1c(OCCCCCCN(C)C)ccc(C(C)=O)c1O` [Example 38, N,N-Dimethyl-[6-(4-acetyl-3-hydroxy-2-propylphenoxy)hexyl]amine hydrochloride], for which the inhibition at 10 µM came out at 60% and the inhibition at 3 µM was found to be 30%.
